Consider four compounds from patent publication US6451990B1, “Azithromycin preparation in its noncryst alline and crystalline dihydrate forms” (Astur-Pharma, S.A., priority 1999, dated 2002).

Like-named read-outs stand apart in the source and are kept apart here.

The test system of series [1] is gram-positive and some cases of gram-negative bacteria. The note with it: against gram-positive and some cases of gram-negative bacteria; Kirst, Sides 1989; cited from earlier work.
The conditions of series [2]: cited from earlier work; for hygroscopicity of crystalline form: as described in EP 0,298,650.
Series [3] is described as follows: Hygroscopicity: water uptake under an atmosphere over 75% relative humidity. Format: physicochemical. The note with it: for water content: sample containing 3% water at start, atmosphere over 75% relative humidity. How it is done:
4. Hygroscopicity. Two different samples of non-crystalline azithromycin containing 3% water were kept under an atmosphere over 75% relative humidity. After 8 hours, water content in the first sample was 5.3%, while the second one contained 9.9% water after 72 hours.

On to `CC[C@H]1OC(=O)[C@H](C)[C@@H](O[C@H]2C[C@@](C)(OC)[C@@H](O)[C@H](C)O2)[C@H](C)[C@@H](O[C@@H]2O[C@H](C)C[C@H](N(C)C)[C@H]2O)[C@](C)(O)C[C@@H](C)CN(C)[C@H](C)[C@@H](O)[C@]1(C)O` [Azithromycin, 9-deoxo-9a-aza-9a-methyl-9a-homoerythromycin A], for which, in series [1], the antimicrobial activity entry was “excellent antimicrobial activity”. For `CC[C@H]1OC(=O)[C@H](C)[C@@H](O[C@H]2C[C@@](C)(OC)[C@@H](O)[C@H](C)O2)[C@H](C)[C@@H](O[C@@H]2O[C@H](C)C[C@H](N(C)C)[C@H]2O)[C@](C)(O)C[C@@H](C)CN(C)[C@H](C)[C@@H](O)[C@]1(C)O` [azithromycin dihydrate, 9-deoxo-9a-aza-9a-methyl-9a-homoerythromycin A dihydrate], in series [2] (dihydrate), the “hygroscopicity of crystalline form” value is “non-hygroscopic”. For the same compound, the “percentile water content (kept constant)” value in series [2] (theoretical value 4.6%) was 4.5-5%. On to `CC[C@H]1OC(=O)[C@H](C)[C@@H](O[C@H]2C[C@@](C)(OC)[C@@H](O)[C@H](C)O2)[C@H](C)[C@@H](O[C@@H]2O[C@H](C)C[C@H](N(C)C)[C@H]2O)[C@](C)(O)C[C@@H](C)CN(C)[C@H](C)[C@@H](O)[C@]1(C)O` [azithromycin monohydrate], for which the “hygroscopicity of crystalline form” value in series [2] is listed as “hygroscopic”. Consider `CC[C@H]1OC(=O)[C@H](C)[C@@H](O[C@H]2C[C@@](C)(OC)[C@@H](O)[C@H](C)O2)[C@H](C)[C@@H](O[C@@H]2O[C@H](C)C[C@H](N(C)C)[C@H]2O)[C@](C)(O)C[C@@H](C)CN(C)[C@H](C)[C@@H](O)[C@]1(C)O` [non-crystalline azithromycin, non-crystalline 9-deoxo-9a-aza-9a-methyl-9a-homoerythromycin A], for which the Hygroscopicity entry in series [3] (conclusion from water uptake over 75% relative humidity) is on record as “moderately hygroscopic”. For the same compound, the water content was determined as 5.3% in series [3] (after 8 hours (first sample)) and 9.9% in series [3] (after 72 hours (second sample)).
